# Reference: article PMC5706701, “Development of a homogenous high-throughput assay for inositol hexakisphosphate kinase 1 activity” (PLoS ONE, 2017)
# Where a name gives a salt, the structure may show the parent alone. Read-outs that look alike come from different tables or passages of the source.
# Target: T1, Human IP6K1 (Homo sapiens, UniProt Q92551)
# T1 construct: GST (N, cleaved yes); made in house; host or cells: C43 E. coli, pGEX-6P-2
# Assay: IP6K1 high-throughput screen of the Sigma LOPAC (ADP-Glo Max, single point);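 further: final compound concentration 10µM in 5% DMSO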
# Type: biochemical
# [1] = LOPAC single-point screen, ADP-Glo Max luminescence raw signal per well
# [2] = LOPAC single-point screen, Z-score relative to plate average and StDev
# [3] = LOPAC single-point screen, ADP-Glo Max raw signal per well
# [4] = LOPAC single-point screen, Z-score from raw signal with plate average and StDev
# [5] = Sigma LOPAC single-point screen, ADP-Glo Max raw signal per well
# [6] = Sigma LOPAC single-point screen, Z-score from plate average and StDev
# [7] = LOPAC single-point screen, Z-score against plate average and StDev
# [8] = LOPAC single-point screen, Z-score from plate average and StDev
# T1 sequence (Q92551 whole entry): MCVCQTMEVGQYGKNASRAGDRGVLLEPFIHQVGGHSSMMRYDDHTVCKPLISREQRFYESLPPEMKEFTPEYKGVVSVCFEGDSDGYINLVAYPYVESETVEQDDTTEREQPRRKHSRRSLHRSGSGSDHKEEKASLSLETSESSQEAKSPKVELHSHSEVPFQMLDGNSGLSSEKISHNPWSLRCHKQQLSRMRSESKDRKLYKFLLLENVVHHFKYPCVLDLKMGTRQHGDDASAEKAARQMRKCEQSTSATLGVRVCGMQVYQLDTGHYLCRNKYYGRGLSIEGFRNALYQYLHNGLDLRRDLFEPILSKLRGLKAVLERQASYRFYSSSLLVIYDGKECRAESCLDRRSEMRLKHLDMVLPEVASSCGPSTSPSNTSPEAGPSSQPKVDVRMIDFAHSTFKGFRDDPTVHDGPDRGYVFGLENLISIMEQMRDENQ
compound,measurement,setting,value
Nc1ncn([C@@H]2O[C@H](CO)[C@@H](O)[C@H]2O)c(=O)n1 [5-azacytidine],Raw Signal,[1],54885
same,Z-score,[2],-0.5333
C[C@H]1O[C@@H](n2cc(F)c(=O)[nH]c2=O)[C@H](O)[C@@H]1O [5-fluoro-5-deoxyuridine],Raw Signal,[3],53997
same,Z-score,[4],-0.2376
CCCCCC(O)CCCC(=O)O.[Na] (stereo not shown) [5-hydroxydecanoic acid sodium],Raw Signal,[3],53435
same,Z-score,[4],-0.3518
"C[C@]12CC[C@@H](O)C[C@@H]1CC[C@@H]1[C@@H]2CC[C@]2(C)[C@@H](O)CC[C@@H]12 [5alpha-Androstane-3alpha,17beta-diol]",Raw Signal,[1],54542
same,Z-score,[2],-0.5937
"CC(=O)[C@H]1CC[C@H]2[C@@H]3CC[C@H]4C[C@H](O)CC[C@]4(C)[C@H]3C(=O)C[C@]12C [5alpha-Pregnan-3alpha-ol-11,20-dione]",Raw Signal,[5],56964
same,Z-score,[6],0.4319
CC(=O)[C@H]1CC[C@H]2[C@@H]3CC[C@H]4C[C@H](O)CC[C@]4(C)[C@H]3CC[C@]12C [5alpha-Pregnan-3alpha-ol-20-one],Raw Signal,[3],55941
same,Z-score,[7],-0.01609
O=c1[nH]c2ccccc2c2ccccc12 [6(5H)-Phenanthridinone],Raw Signal,[3],55315
same,Z-score,[4],-0.1377
"Br.NC1CCc2cc(O)c(O)cc2C1 (stereo not shown) [6,7-ADTN hydrobromide]",Raw Signal,[3],55279
same,Z-score,[7],0.02274
"O=c1[nH]c2cc(Cl)c(Cl)cc2[nH]c1=O [6,7-Dichloroquinoxaline-2,3-dione]",Raw Signal,[3],56553
same,Z-score,[7],0.2815
NCCCCCC(=O)O [6-Aminohexanoic acid],Raw Signal,[1],70191
same,Z-score,[8],2.162
COc1cc2c(CCNC(C)=O)c[nH]c2cc1Cl [6-Chloromelatonin],Raw Signal,[5],61765
same,Z-score,[6],0.6784
Cl.NCC(O)c1cc(O)c(O)cc1F (stereo not shown) [6-Fluoronorepinephrine hydrochloride],Raw Signal,[1],54023
same,Z-score,[2],-0.6852
COc1cc2c(CCNC(C)=O)c[nH]c2cc1O [6-Hydroxymelatonin],Raw Signal,[1],52038
same,Z-score,[2],-0.6355
"O=Nc1ccc2oc(=O)ccc2c1 [6-Nitroso-1,2-benzopyrone]",Raw Signal,[5],57563
same,Z-score,[6],0.5326
"CCCCCCCCCCC/C=C\C(C)(C)/C=C\CCCC(=O)O [7,7-Dimethyl-(5Z,8Z)-eicosadienoic acid]",Raw Signal,[3],53422
same,Z-score,[4],-0.3544
O=C(O)c1cc(O)c2ccc(Cl)cc2n1 [7-Chlorokynurenic acid],Raw Signal,[3],53866
same,Z-score,[4],-0.2642
O=[N+]([O-])c1cccc2cn[nH]c12 [7-Nitroindazole],Raw Signal,[3],55532
same,Z-score,[7],0.1913
Cn1c(=O)c2c(nc(C=Cc3cccc(Cl)c3)n2C)n(C)c1=O [8-(3-Chlorostyryl)caffeine],Raw Signal,[3],56359
same,Z-score,[7],0.2421
Cn1c(=O)c2[nH]c(-c3ccc(S(=O)(=O)O)cc3)nc2n(C)c1=O [8-(p-Sulfophenyl)theophylline],Raw Signal,[3],56907
same,Z-score,[4],-0.1772
Nc1nc2c(nc(Br)n2[C@@H]2O[C@@H]3COP(=O)([O-])O[C@H]3[C@H]2O)c(=O)[nH]1.[Na+] [8-Bromo-cGMP sodium],Raw Signal,[3],55323
same,Z-score,[4],-0.4562
"Cn1c(=O)c2[nH]c(C3CCCC3)nc2n(C)c1=O [8-Cyclopentyl-1,3-dimethylxanthine]",Raw Signal,[5],58283
same,Z-score,[6],0.6328
"CCCn1c(=O)c2[nH]c(C3CCCC3)nc2n(CCC)c1=O [8-Cyclopentyl-1,3-dipropylxanthine]",Raw Signal,[3],55782
same,Z-score,[7],0.1249
Nc1ncnc2c1ncn2C1CCCC1 [9-cyclopentyladenine],Raw Signal,[5],60166
same,Z-score,[6],0.3968
CC1=C(/C=C/C(C)=C/C=C/C(C)=C\C(=O)O)C(C)(C)CCC1 [13-cis-retinoic acid],Raw Signal,[3],55954
same,Z-score,[7],-0.01356
CC(N)=NCc1cccc(CN)c1.Cl.Cl [1400W dihydrochloride],Raw Signal,[3],55005
same,Z-score,[4],-0.1979
COc1cc(C[C@@H](C)N)c(OC)cc1I.Cl [( R)-(-)-DOI hydrochloride],Raw Signal,[3],54807
same,Z-score,[7],-0.07312
CN1CCc2cc3c(cc2[C@H]1[C@@H]1OC(=O)c2c1ccc1c2OCO1)OCO3 [(+)-Bicuculline],Raw Signal,[1],66353
same,Z-score,[8],1.4865
CC(C)C[C@H]1C(=O)N2CCC[C@H]2[C@]2(O)O[C@](NC(=O)[C@@H]3C=C4c5cccc6[nH]c(Br)c(c56)C[C@H]4N(C)C3)(C(C)C)C(=O)N12.CS(=O)(=O)O [(+)-Bromocriptine methanesulfonate],Raw Signal,[3],59214
same,Z-score,[7],0.2291
CN(C)CC[C@@H](c1ccc(Br)cc1)c1ccccn1 [(+)-Brompheniramine maleate],Raw Signal,[1],67936
same,Z-score,[8],1.765
CC(C)(C)[C@]1(O)CCN2C[C@H]3c4ccccc4CCc4cccc(c43)[C@@H]2C1 [(+)-Butaclamol hydrochloride],Raw Signal,[1],54506
same,Z-score,[2],-0.6001
CN(C)CC[C@@H](c1ccc(Cl)cc1)c1ccccn1 [(+)-Chlorpheniramine maleate],Raw Signal,[3],57307
same,Z-score,[4],-0.1068
C=CCN1CC[C@]2(C)c3cc(O)ccc3C[C@H]1[C@H]2C.Cl [(+)-N-Allylnormetazocine hydrochloride],Raw Signal,[1],54138
same,Z-score,[2],-0.6649
CN1CCCC1c1cccnc1.Cc1ccc(C(=O)OC(C(=O)O)C(OC(=O)c2ccc(C)cc2)C(=O)O)cc1 (stereo not drawn) [(+)-Nicotine (+)-di-p-toluoyl tartrate],Raw Signal,,52925
same,Z-score,,-0.2467
CC[C@@H]1C(=O)OC[C@@H]1Cc1cncn1C.Cl [(+)-Pilocarpine hydrochloride],Raw Signal,[5],57845
same,Z-score,[6],0.5799
N[C@@H](Cn1oc(=O)[nH]c1=O)C(=O)O [(+)-Quisqualic acid],Raw Signal,[5],59992
same,Z-score,[6],0.7709
C[C@@H]1OC[C@H](C[N+](C)(C)C)O1.[I-] [(+)-cis-Dioxolane iodide],Raw Signal,[3],55108
same,Z-score,[7],-0.01199
"C[N+]1(C)CCc2cc3c(cc2[C@H]1[C@@H]1OC(=O)c2c1ccc1c2OCO1)OCO3.[Br-] [(-)-Bicuculline methbromide, 1(S), 9(R)]",Raw Signal,[3],56332
same,Z-score,[4],-0.2785
CN1C(=O)CC[C@H]1c1cccnc1 [(-)-Cotinine],Z-score,[2],-0.59
CN[C@@H](C)[C@H](O)c1ccccc1.CN[C@@H](C)[C@H](O)c1ccccc1.O=S(=O)(O)O [(-)-Ephedrine hemisulfate],Raw Signal,[3],54708
same,Z-score,[4],-0.09323
CNC[C@H](O)c1ccc(O)c(O)c1 [(-)-Epinephrine bitartrate],Raw Signal,[1],51229
same,Z-score,[2],-0.7998
CN1CC[C@@]2(C)c3cc(O)ccc3N(C)[C@@H]12.O=C(O)/C=C/C(=O)O [(-)-Eseroline fumarate],Raw Signal,[5],57638
same,Z-score,[6],0.5018
C[C@@]12N[C@@H](Cc3ccccc31)c1ccccc12.O=C(O)/C=C\C(=O)O [(-)-MK-801 hydrogen maleate],Raw Signal,[5],58481
same,Z-score,[6],0.6868
COc1ccc2cc([C@H](C)C(=O)[O-])ccc2c1.[Na+] [(-)-Naproxen sodium],Raw Signal,[5],56716
same,Z-score,[6],0.3902
C=C(C)[C@H]1CC=C(C(=O)O)CC1 [(-)-Perillic acid],Raw Signal,[5],58838
same,Z-score,[6],0.5467
CNC(=O)Oc1ccc2c(c1)[C@]1(C)CCN(C)[C@@H]1N2C [(-)-Physostigmine],Raw Signal,[1],62569
same,Z-score,[8],1.503
C[N+]1(C)[C@@H]2C[C@@H](OC(=O)[C@H](CO)c3ccccc3)C[C@H]1[C@@H]1O[C@@H]12 [(-)-Scopolamine methyl bromide],Raw Signal,[3],55432
same,Z-score,[4],-0.115
CCN1CCC[C@H]1CNC(=O)c1cc(S(N)(=O)=O)ccc1OC [(-)-Sulpiride],Raw Signal,[3],56775
same,Z-score,[7],0.1459
Cl.c1ccc([C@H]2CN3CCSC3=N2)cc1 [(-)-Tetramisole hydrochloride],Raw Signal,,55029
same,Z-score,,0.1068
CN(Cc1cnc2nc(N)nc(N)c2n1)c1ccc(C(=O)N[C@@H](CCC(=O)O)C(=O)O)cc1 [(-)Amethopterin],Raw Signal,[5],61362
same,Z-score,[6],0.6074
NC/C=C/C(=O)O [(E)-4-amino-2-butenoic acid],Raw Signal,[1],52183
same,Z-score,[2],-1.009
O=c1[nH]c(=O)n([C@H]2C[C@H](O)[C@@H](CO)O2)cc1/C=C/Br [(E)-5-(2-Bromovinyl)-2-deoxyuridine],Raw Signal,[3],57888
same,Z-score,[7],-0.004421
"CS(=O)(=O)O.Cc1c(C(=O)c2cccc3ccccc23)c2cccc3c2n1[C@H](CN1CCOCC1)CO3 [(R)-(+)-WIN 55,212-2 mesylate]",Raw Signal,[5],62593
same,Z-score,[6],1.276
"N[C@H](C(=O)O)c1cc(O)cc(O)c1 [(S)-3,5-Dihydroxyphenylglycine]",Raw Signal,[1],63204
same,Z-score,[8],1.632
CC[C@@]1(O)C(=O)OCc2c1cc1n(c2=O)Cc2cc3ccccc3nc2-1 [(S)-(+)-Camptothecin],Raw Signal,[5],58626
same,Z-score,[6],0.7025
CCCNC[C@H](O)COc1ccccc1C(=O)CCc1ccccc1.Cl [(S)-(-)-propafenone hydrochloride],Raw Signal,[1],52495
same,Z-score,[2],-0.6856
OC[C@H]1O[C@@H](n2cnc3c(N[C@H]4CC5CCC4C5)ncnc32)[C@H](O)[C@@H]1O (stereo partly drawn) [(S)-ENBA],Raw Signal,[3],53537
same,Z-score,[4],-0.331
C[C@](N)(CCP(=O)(O)O)C(=O)O.Cl [(S)-MAP4 hydrochloride],Raw Signal,[3],53240
same,Z-score,[4],-0.1938
CC(C)NC[C@H](O)COc1cccc2ccccc12 [(S)-Propranolol hydrochloride],Raw Signal,[5],59687
same,Z-score,[6],0.7117
